# Literature values in patent US9795630B2, “Compositions and methods for inducing or enhancing connective tissue repair” (Glenpharma AB, priority 2009, dated 2017).
# System: superficial digital flexor tendon injuries
# Details: horses; Dyson 1977/1997 & 2004
compound,measurement,value
"N#CCCN.N#CCCN.O=C(O)/C=C/C(=O)O [BAPN, B-aminoproprionitrile fumarate]","benefit of intralesional treatment (healing, recovery time, tendon repair) compared with controlled exercise alone",failed to show any benefit
